Measured values: ChEMBL document CHEMBL1158404, “Antifungal activity of alkyl and heterocyclic aza-derivatives of gossypol as well as their complexes with NaClO4 against Fusarium oxysporum f. sp. lupini” (2009)

Key:
Type in all cases: functional
Fusarium oxysporum [1] = assay: Antifungal activity against Fusarium oxysporum f. sp. lupini at 20 ug/ml after 48 hrs
Fusarium oxysporum [2] = assay: Antifungal activity against Fusarium oxysporum f. sp. lupini at 20 ug/ml after 96 hrs
Fusarium oxysporum [3] = assay: Antifungal activity against Fusarium oxysporum f. sp. lupini at 20 ug/ml after 144 hrs
Fusarium oxysporum [4] = assay: Antifungal activity against Fusarium oxysporum f. sp. lupini at 20 ug/ml after 192 hrs
Fusarium oxysporum [5] = assay: Antifungal activity against Fusarium oxysporum f. sp. lupini at 20 ug/ml after 192 hrs relative to control; conditions: read-out: GI
Fusarium oxysporum [6] = assay: Antifungal activity against Fusarium oxysporum f. sp. lupini at 1 ug/ml after 48 hrs
Fusarium oxysporum [7] = assay: Antifungal activity against Fusarium oxysporum f. sp. lupini at 1 ug/ml after 96 hrs
Fusarium oxysporum [8] = assay: Antifungal activity against Fusarium oxysporum f. sp. lupini at 1 ug/ml after 144 hrs
Fusarium oxysporum [9] = assay: Antifungal activity against Fusarium oxysporum f. sp. lupini at 1 ug/ml after 192 hrs
Fusarium oxysporum [10] = assay: Antifungal activity against Fusarium oxysporum f. sp. lupini at 1 ug/ml after 192 hrs relative to control; conditions: read-out: GI
Fusarium oxysporum [11] = assay: Antifungal activity against Fusarium oxysporum f. sp. lupini at 0.5 ug/ml after 48 hrs
Fusarium oxysporum [12] = assay: Antifungal activity against Fusarium oxysporum f. sp. lupini at 0.5 ug/ml after 96 hrs
Fusarium oxysporum [13] = assay: Antifungal activity against Fusarium oxysporum f. sp. lupini at 0.5 ug/ml after 144 hrs
Fusarium oxysporum [14] = assay: Antifungal activity against Fusarium oxysporum f. sp. lupini at 0.5 ug/ml after 192 hrs
Fusarium oxysporum [15] = assay: Antifungal activity against Fusarium oxysporum f. sp. lupini at 0.5 ug/ml after 192 hrs relative to control; conditions: read-out: GI
Fusarium oxysporum [16] = assay: Antifungal activity against Fusarium oxysporum f. sp. lupini at 0.1 ug/ml after 48 hrs
Fusarium oxysporum [17] = assay: Antifungal activity against Fusarium oxysporum f. sp. lupini at 0.1 ug/ml after 96 hrs
Fusarium oxysporum [18] = assay: Antifungal activity against Fusarium oxysporum f. sp. lupini at 0.1 ug/ml after 144 hrs
Fusarium oxysporum [19] = assay: Antifungal activity against Fusarium oxysporum f. sp. lupini at 0.1 ug/ml after 192 hrs
Fusarium oxysporum [20] = assay: Antifungal activity against Fusarium oxysporum f. sp. lupini at 0.1 ug/ml after 192 hrs relative to control; conditions: read-out: GI

Compound	Radial growth inhibition of fungi (Ā) (mm) (Fusarium oxysporum [1])	Radial growth inhibition of fungi (Ā) (mm) (Fusarium oxysporum [2])	Radial growth inhibition of fungi (Ā) (mm) (Fusarium oxysporum [3])	Radial growth inhibition of fungi (Ā) (mm) (Fusarium oxysporum [4])	inhibition of growth at 20 µg/mL (Fusarium oxysporum [5]) [%]	Radial growth inhibition of fungi (Ā) (mm) (Fusarium oxysporum [6])	Radial growth inhibition of fungi (Ā) (mm) (Fusarium oxysporum [7])	Radial growth inhibition of fungi (Ā) (mm) (Fusarium oxysporum [8])	Radial growth inhibition of fungi (Ā) (mm) (Fusarium oxysporum [9])	inhibition of growth at 1 µg/mL (Fusarium oxysporum [10]) [%]	Radial growth inhibition of fungi (Ā) (mm) (Fusarium oxysporum [11])	Radial growth inhibition of fungi (Ā) (mm) (Fusarium oxysporum [12])	Radial growth inhibition of fungi (Ā) (mm) (Fusarium oxysporum [13])	Radial growth inhibition of fungi (Ā) (mm) (Fusarium oxysporum [14])	inhibition of growth at 0.5 µg/mL (Fusarium oxysporum [15]) [%]	Radial growth inhibition of fungi (Ā) (mm) (Fusarium oxysporum [16])	Radial growth inhibition of fungi (Ā) (mm) (Fusarium oxysporum [17])	Radial growth inhibition of fungi (Ā) (mm) (Fusarium oxysporum [18])	Radial growth inhibition of fungi (Ā) (mm) (Fusarium oxysporum [19])	inhibition of growth at 0.1 µg/mL (Fusarium oxysporum [20]) [%]
COCCOC(C/N=C/c1c(O)c(O)c(C(C)C)c2cc(C)c(-c3c(C)cc4c(c3O)C(/C=N/CC(OCCOC)OCCOC)C(=O)C(O)=C4C(C)C)c(O)c12)OCCOC (stereo not given)	19.63	31.63	45.5	58.38	1.5	19.75	32.13	45.63	58.63	1	–	–	–	–	–	–	–	–	–	–
C=CCN/C=C1\C(=O)C(O)=C(C(C)C)c2cc(C)c(-c3c(C)cc4c(c3O)/C(=C/NCC=C)C(=O)C(O)=C4C(C)C)c(O)c21	14.63	24.75	34.63	45.88	22.6	17.13	26	36.63	47	20.7	18.13	27.25	38.88	50	15.6	19.25	29.88	41.63	53.75	9.3
CCOC(=O)N1CCC(N/C=C2\C(=O)C(O)=C(C(C)C)c3cc(C)c(-c4c(C)cc5c(c4O)/C(=C/NC4CCN(C(=O)OCC)CC4)C(=O)C(O)=C5C(C)C)c(O)c32)CC1	19.63	32.13	46	59	0.4	19.88	32.25	46.25	59.25	0	–	–	–	–	–	–	–	–	–	–
Cc1cc2c(c(O)c1-c1c(C)cc3c(C(C)C)c(O)c(O)c(/C=N/N4CCN(C)CC4)c3c1O)C(/C=N/N1CCN(C)CC1)C(=O)C(O)=C2C(C)C (stereo not given)	19.25	31.63	45.75	58.5	1.3	19.38	31.88	45.75	58.75	0.8	–	–	–	–	–	–	–	–	–	–
Cc1cc2c(c(O)c1-c1c(C)cc3c(C(C)C)c(O)c(O)c(/C=N/N4CCN(CCO)CC4)c3c1O)C(/C=N/N1CCN(CCO)CC1)C(=O)C(O)=C2C(C)C (stereo not given)	19.5	31.5	45.38	58.25	1.7	19.63	32	45.5	58.5	1.3	–	–	–	–	–	–	–	–	–	–
Cc1cc2c(c(O)c1-c1c(C)cc3c(c1O)/C(=C/NCCCN1CCCC1=O)C(=O)C(O)=C3C(C)C)/C(=C/NCCCN1CCCC1=O)C(=O)C(O)=C2C(C)C	19.5	31.88	45.88	58.88	0.6	19.75	32.13	46.13	59.25	0	–	–	–	–	–	–	–	–	–	–
COCCOCCOCCN/C=C1\C(=O)C(O)=C(C(C)C)c2cc(C)c(-c3c(C)cc4c(c3O)/C(=C/NCCOCCOCCOC)C(=O)C(O)=C4C(C)C)c(O)c21	14.13	24.13	34.13	44	25.7	14.88	25	35.25	45.75	22.8	16.38	25.75	36.88	48.5	18.1	16.75	27	39.25	51.75	12.7
Cc1cc2c(c(O)c1-c1c(C)cc3c(c1O)/C(=C/NCCCN1CCOCC1)C(=O)C(O)=C3C(C)C)/C(=C/NCCCN1CCOCC1)C(=O)C(O)=C2C(C)C	19.25	31.63	45.63	58.63	1	19.5	31.88	45.88	59	0.4	–	–	–	–	–	–	–	–	–	–
Cc1cc2c(c(O)c1-c1c(C)cc3c(c1O)/C(=C/NCCOCCO)C(=O)C(O)=C3C(C)C)/C(=C/NCCOCCO)C(=O)C(O)=C2C(C)C	14.38	24.5	34.5	45.25	23.6	16	25.75	35.88	46.25	21.9	17.63	26.5	38	49.5	16.5	18.13	28.5	40.38	52.63	11.2
COCC/N=C/c1c(O)c(O)c(C(C)C)c2cc(C)c(-c3c(C)cc4c(c3O)C(/C=N/CCOC)C(=O)C(O)=C4C(C)C)c(O)c12 (stereo not given)	19.5	31.88	45.88	58.88	0.6	19.75	32.13	46.13	59	0.4	–	–	–	–	–	–	–	–	–	–
CCCCOCCOCCN/C=C1\C(=O)C(O)=C(C(C)C)c2cc(C)c(-c3c(C)cc4c(c3O)/C(=C/NCCOCCOCCCC)C(=O)C(O)=C4C(C)C)c(O)c21	13.5	23.63	33.25	43.63	26.4	14.25	23.5	33.88	44	25.7	15.13	24.63	34.75	45.13	23.8	16.38	25.63	36.75	49.25	16.9
Cc1cc2c(c(O)c1-c1c(C)cc3c(c1O)/C(=C/NCCc1cccs1)C(=O)C(O)=C3C(C)C)/C(=C/NCCc1cccs1)C(=O)C(O)=C2C(C)C	19.38	31.75	45.75	58.75	0.8	19.63	32	46	59.13	0.2	–	–	–	–	–	–	–	–	–	–
